Here are results for 2 molecules from patent US20100248390A1, “COMPOSITIONS AND METHODS FOR IDENTIFYING LIGANDS OF ODORANT RECEPTORS” (DUKE UNIVERSITY, priority 2009, published 2010).

The structures appear in SMILES notation.

The target of assay [1] is T1, human odorant receptors (ORs) (Homo sapiens, UniProt Q8TCB6).
T1 construct: OR open reading frames were amplified from genomic DNA; expressed in transfected cells; host or cells: Hana3A cells, co-transfected with RTP1S, CRE-luciferase and pRL-SV40
T1 sequence (Q8TCB6 1-318): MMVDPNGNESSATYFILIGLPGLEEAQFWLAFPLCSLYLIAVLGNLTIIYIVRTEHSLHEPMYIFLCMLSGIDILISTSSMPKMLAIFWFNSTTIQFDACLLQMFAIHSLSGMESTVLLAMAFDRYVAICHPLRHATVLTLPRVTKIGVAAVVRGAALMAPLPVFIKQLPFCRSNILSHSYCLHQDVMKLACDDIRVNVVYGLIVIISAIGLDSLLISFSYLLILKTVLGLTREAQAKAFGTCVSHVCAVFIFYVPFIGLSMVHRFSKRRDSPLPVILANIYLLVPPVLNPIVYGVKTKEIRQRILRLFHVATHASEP
The experiment in a line: CRE-luciferase assay of odorant receptor activation (Dual-Glo, Hana3A cells, RTP1S), dose-response EC50. It counts as cell-based. Summed up: (§1)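 Hana3A cells were co-transfected with Rho-tagged OR, RTP1S, CRE-luciferase and pRL-SV40, then exposed to odorant in CD293 medium for 4 hrs at 37° C. Firefly luminescence was divided by Renilla and normalized as (LN−Lmin)/(Lmax−Lmin) per plate set. Each dose was tested at least three times, and EC50 came from sigmoidal fits.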

In assay [2] the target is T2, human odorant receptors (ORs) (Homo sapiens, UniProt Q8NGJ5).
T2 construct: OR open reading frames were amplified from genomic DNA; expressed in transfected cells; host or cells: Hana3A cells, co-transfected with RTP1S, CRE-luciferase and pRL-SV40
T2 sequence (Q8NGJ5 1-315): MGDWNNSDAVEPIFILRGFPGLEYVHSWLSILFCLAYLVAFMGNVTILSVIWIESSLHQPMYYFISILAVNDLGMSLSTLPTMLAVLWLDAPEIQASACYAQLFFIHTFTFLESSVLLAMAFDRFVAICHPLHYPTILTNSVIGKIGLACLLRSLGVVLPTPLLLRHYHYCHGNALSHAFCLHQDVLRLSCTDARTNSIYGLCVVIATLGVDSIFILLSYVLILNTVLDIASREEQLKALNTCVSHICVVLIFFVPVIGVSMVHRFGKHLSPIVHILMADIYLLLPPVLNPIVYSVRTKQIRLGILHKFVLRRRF
Described as above. The class given is cell-based. The method in brief: as §1

As usually defined, the EC50 is the concentration giving half of the maximal effect. With `CCCCCCCCC(=O)O` [Nonanoic acid], in assay [1], the EC50 was 246 µM.

In assay [2], `C=CCOC(=O)Cc1ccccc1` [Allyl phenylacetate] showed an EC50 of 67.6 µM.
